# “Also recorded” adds a separate entry of the source.
# T1: C3aR on neutrophils (Homo sapiens, UniProt Q16581)
# T1 construct: endogenous in cells; host or cells: human neutrophils from donor blood or differentiated from HL-60 cells
# T1 sequence (Q16581 1-482): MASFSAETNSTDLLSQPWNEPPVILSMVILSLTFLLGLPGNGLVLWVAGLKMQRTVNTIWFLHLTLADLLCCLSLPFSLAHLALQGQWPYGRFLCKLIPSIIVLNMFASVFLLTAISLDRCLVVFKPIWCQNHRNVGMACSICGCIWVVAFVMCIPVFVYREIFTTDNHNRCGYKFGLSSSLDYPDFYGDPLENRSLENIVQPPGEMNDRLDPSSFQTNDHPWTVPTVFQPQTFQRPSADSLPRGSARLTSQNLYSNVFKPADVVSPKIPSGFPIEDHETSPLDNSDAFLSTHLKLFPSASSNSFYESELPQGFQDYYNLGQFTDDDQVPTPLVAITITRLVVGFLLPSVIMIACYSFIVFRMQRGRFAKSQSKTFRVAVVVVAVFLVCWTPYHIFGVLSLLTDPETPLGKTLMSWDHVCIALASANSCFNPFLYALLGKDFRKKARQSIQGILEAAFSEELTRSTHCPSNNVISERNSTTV
# How the values were obtained:
# C3aR on neutrophils = target: T1, C3aR on neutrophils; assay: Neutrophil- and NHS-mediated MSC damage assay with C3aR antagonist; assay type: cell-based; settings: HL60-derived neutrophils plus 30% NHS; antagonist alone, 10 μM
# Description: Neutrophil-mediated MSC damage assay. Human neutrophils, either purified from healthy donor peripheral blood mononuclear cells (PBMCs) by Ficoll centrifugation (provided by the Hematopoietic Stem Cells Core Facility at Case Western Reserve University) or differentiated from the neutrophil progenitor cell line HL-60 (ATCC), were used. Collins et al., Proc Natl Acad Sci USA. 1978; 75:2458-62. In some experiments, neutrophil-mediated MSC damage was assessed using a similar BCECF-based assay to that already described. In brief, 2×10^4 MSCs were labeled with BCECF-AM as described above, then, after washing, the labeled MSC were incubated for 30 min at 37° C. with different numbers of neutrophils in the presence or absence of 30% NHS in 100 μl of GVB++ buffer with various concentrations of the neutrophil function inhibitor wortmannin that inhibits oxidative burst (Sue-A-Quan et al., Journal of cellular physiology. 1997; 172:94-108) (Cayman Chemical, Ann Arbor, Mich.) and released BCECF in the supernatants was measured as described. The percentage BCECF release (cell injury) was calculated as above. […]
# Neu5GC on MSCs = assay: Neu5GC detection on MSCs; assay type: cell-based, human; settings: MSCs cultured 7 days with Neu5AC in complete medium vs without
# Description: Neu5GC detection on MSCs. This was performed as described previously by Ghaderi et al. In brief, after blocking with a 0.5% solution of fish skin gelatin (Sigma-Aldrich, St. Louis, Mo.), MSCs were incubated for 30 min on ice with 5 μg/ml of chicken anti-Neu5GC IgY or control IgY, then were washed, stained with 5 μg/ml of fluorescein isothiocyanate (FITC)-labeled anti-IgY antibody (Jackson ImmunoResearch Laboratories, West Grove, Pa.), and analyzed on a flow cytometer (BD FACSCalibur, San Jose, Calif.).
# MSCs [1] = assay: In vitro damage of MSCs (BCECF release) after contact with serum; assay type: cell-based; settings: MSCs cultured with Neu5AC (lower Neu5GC levels) vs without; 20% or 30% normal human serum
# Description: Measurement of in vitro damage of MSCs. An established fluorescence dye release assay was used to assess MSC injury after contact with serum. In brief, 2×10^5 heparin-painted or mock-painted MSCs were first loaded by incubation for 30 min at 37° C. with 5 μM 2′,7′-bis-(2-carboxyethyl)-5-(and-6)-carboxyfluorescein acetoxymethyl ester (BCECF-AM) (Thermo Fisher Scientific™, Grand Island, N.Y.). After 3 washes, the BCECF-loaded MSCs were incubated for 30 min at 37° C. with 20 or 30% normal human serum in 100 μL of GVB++, then the cells were removed by centrifugation and released BCECF in the supernatant measured on a SpectraMax Gemini XS (Molecular Devices, Sunnyvale, Calif.) with excitation and emission wavelengths, respectively, of 485 nm and 538 nm. The MSC damage (percentage of BCECF release) was calculated as ([A−B]/[C−B])×100%, where A represents the mean experimental BCECF release, B the mean spontaneous BCECF release, and C the mean maximum BCECF release induced by incubating the cells with 0.1% Triton-X100.
# [2] = tested on: human IgGs and IgMs on MSCs; assay: MSC serum immunoglobulin binding assay; assay type: cell-based; settings: MSCs cultured with Neu5AC, then pooled normal human serum
# Description: MSC serum immunoglobulin binding assay. MSCs (0.5×10^6) cultured in the presence or absence of 3 mM of Neu5AC for a week were incubated for 30 min on ice with 30% pooled normal human serum in PBS. After washing, the cells were stained for cell surface-bound human IgGs and IgMs with 2 μg/ml of anti-human IgG or anti-human IgM antibodies (Jackson ImmunoResearch Laboratories, West Grove, Pa.) and examined by flow cytometry.
# [3] = tested on: complement alternative pathway; assay: Complement alternative pathway activation ex vivo assay (zymosan C3b deposition); assay type: in vivo; settings: plasma of WT C57BL/6 mice 30 min after s.c. heparin 20 U/mouse vs saline
# Description: (§1) Complement alternative pathway and classical pathway activation ex vivo assays. Mice were injected subcutaneously (s.c.) with 20 U of heparin (MP Biomedicals, Solon, Ohio) in saline or saline alone, then blood samples were collected 30 min later and immediately centrifuged for 5 min at 4° C. to collect the plasma. The activity of the complement alternative pathway was assessed using a zymosan C3b deposition assay and complement classical pathway activity was measured using an antibody-sensitized sheep erythrocytes (EshA) C3b deposition assay.
# [4] = tested on: complement classical pathway; assay: Complement classical pathway activation ex vivo assay (EshA C3b deposition); assay type: in vivo; settings: plasma of WT C57BL/6 mice 30 min after s.c. heparin 20 U/mouse vs saline
# Description: as §1
# MSCs [5] = assay: In vivo damage of MSCs (BCECF release in plasma); design: species or system mice; settings: BCECF-labeled MSCs infused via tail vein 10 min after s.c. heparin vs saline
# Description: Measurement of in vivo damage of MSCs. In vivo MSC damage after infusion was also examined using a BCECF release assay. In brief, each mouse was injected subcutaneously with 500 U of heparin in saline or saline alone, then 1×10^6 MSCs labeled with BCECF were injected by the tail vein, then blood samples were collected after 0, 20, 40, and 60 min and released BCECF in the plasma measured on a SpectraMax Gemini XS (Molecular Devices, Sunnyvale, Calif.) as above.
# To evaluate in vivo damage to MSCs with or without heparin painting, 0.5×10^6 heparin-painted or mock-painted MSCs were labeled with BCECF, then injected into the tail vein and blood sample collected and the plasma assayed for levels of released BCECF as above.
# neutrophils = settings: Ehrengruber et al. 1994; cited from earlier work
# primary neutrophils = assay: Primary neutrophil-mediated MSC damage with purified C5a; assay type: cell-based; settings: purified human C5a 50 ng/ml, no NHS, 4 h
# Description: Neutrophil-mediated MSC damage assay. Human neutrophils, either purified from healthy donor peripheral blood mononuclear cells (PBMCs) by Ficoll centrifugation (provided by the Hematopoietic Stem Cells Core Facility at Case Western Reserve University) or differentiated from the neutrophil progenitor cell line HL-60 (ATCC), were used. Collins et al., Proc Natl Acad Sci USA. 1978; 75:2458-62. In some experiments, neutrophil-mediated MSC damage was assessed using a similar BCECF-based assay to that already described. In brief, 2×10^4 MSCs were labeled with BCECF-AM as described above, then, after washing, […] neutrophils in the presence or absence of 30% NHS in 100 μl of GVB++ buffer with various concentrations of the neutrophil function inhibitor wortmannin that inhibits oxidative burst (Sue-A-Quan et al., Journal of cellular physiology. 1997; 172:94-108) (Cayman Chemical, Ann Arbor, Mich.) and released BCECF in the supernatants was measured as described. The percentage BCECF release (cell injury) was calculated as above. In some experiments, a C5aR antagonist (JPE1375, Calbiochem, Billerica, Mass.)[27] or a C3aR antagonist (SB 290157, Calbiochem, Billerica, Mass.)[28] were added, both at […], to assess the role of C3aR and C5aR on neutrophils, while, in other experiments, NHS was omitted and 50 ng/ml of purified C5a (Complement technology Inc, Tyler, Tex.) added instead.
molecule,measurement,setting,value
NC(N)=NCCC[C@H](NC(=O)COCC(c1ccccc1)c1ccccc1)C(=O)O [C3aR antagonist],neutrophil-mediated MSC damage (BCECF release),C3aR on neutrophils,no appreciable effect
"CC(=O)N[C@H]1[C@H]([C@H](O)[C@H](O)CO)OC(O)(C(=O)O)C[C@@H]1O (stereo partly drawn) [Neu5AC, N-acetylneuraminic acid]",Neu5GC levels on the MSC surface,Neu5GC on MSCs,significantly reduced
same,complement-mediated MSC injury,MSCs [1],less complement-mediated injury; also recorded: moderate reduction
same,amount of bound IgM and IgG on MSCs,[2],decrease
heparin,C3 deposition on the surface of zymosan (alternative pathway),[3],markedly reduced
same,C3 deposition on the surface of EshA (classical pathway),[4],markedly reduced
same,in vivo MSC cell damage (released BCECF in the plasma),MSCs [5],protected
"C5a: purified human C5a, anaphylatoxin (Complement technology Inc) (protein, UniProt P01031 678-751, looked up, C5a anaphylatoxin) C5a anaphylatoxin: TLQKKIEEIAAKYKHSVVKKCCYDGACVNNDETCEQRAARISLGPRCIKAFTECCVVASQLRANISHKDMQLGR",potency in activating neutrophils relative to C3a,neutrophils,50-100 times
same,MSC damage by primary neutrophils,primary neutrophils,significant MSC damage
